This passage reports Km and Activity results from ChEMBL document CHEMBL2074439, “Localization and genomic organization of a new hepatocellular organic anion transporting polypeptide” (J Biol Chem, 2000).

The target in one data set is T1, OATP8 (OATP1B3, SLCO1B3) (Homo sapiens, UniProt Q9NPD5).
T1 sequence (Q9NPD5 whole entry): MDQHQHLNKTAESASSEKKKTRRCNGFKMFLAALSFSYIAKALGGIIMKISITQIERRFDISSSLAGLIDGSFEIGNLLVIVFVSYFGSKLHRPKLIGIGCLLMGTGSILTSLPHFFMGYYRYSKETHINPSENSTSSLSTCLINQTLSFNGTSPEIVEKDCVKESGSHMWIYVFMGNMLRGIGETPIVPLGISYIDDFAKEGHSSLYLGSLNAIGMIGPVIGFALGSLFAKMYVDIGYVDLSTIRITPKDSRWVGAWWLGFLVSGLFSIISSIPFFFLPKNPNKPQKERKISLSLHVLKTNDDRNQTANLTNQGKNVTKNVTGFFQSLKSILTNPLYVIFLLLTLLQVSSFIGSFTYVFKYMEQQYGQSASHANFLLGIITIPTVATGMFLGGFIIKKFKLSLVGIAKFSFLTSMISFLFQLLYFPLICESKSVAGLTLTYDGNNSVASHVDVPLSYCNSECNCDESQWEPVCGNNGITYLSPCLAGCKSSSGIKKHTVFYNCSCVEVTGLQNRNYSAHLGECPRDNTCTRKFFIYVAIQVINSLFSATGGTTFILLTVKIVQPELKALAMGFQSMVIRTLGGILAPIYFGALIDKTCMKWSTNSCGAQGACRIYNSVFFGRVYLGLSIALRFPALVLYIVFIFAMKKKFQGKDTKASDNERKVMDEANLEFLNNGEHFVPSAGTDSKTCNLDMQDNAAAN
The data set is described as follows: (§1) TP_TRANSPORTER: uptake in OATP8-expressing HEK293 cells. It counts as functional, cell-based. The following applies: HEK293 cells that express OATP8 (OATP1B3).

For data set [1], the target named is T2, Solute carrier organic anion transporter family member 1B3 (Homo sapiens, UniProt Q9NPD5).
T2 sequence (Q9NPD5 whole entry): T1 sequence (Q9NPD5 whole entry)
Described as §1. It counts as functional, cell-based. The following applies: hek293.

On to `C[C@]12CC[C@@H]3c4ccc(O)cc4CC[C@H]3[C@@H]1CC[C@@H]2O[C@@H]1O[C@H](C(=O)O)[C@@H](O)[C@H](O)[C@H]1O` [ESTRADIOL 17B GLUCURONIDE], for which the Km – broadly, the concentration of substrate that gives half-maximal velocity – at OATP8 (OATP1B3, SLCO1B3) came out at 5.4 µM; in data set [1], 5.4 µM.

As for `CCCCC/C=C\C\C=C/C=C/C=C/[C@@H](SC[C@@H](NC(=O)CC[C@H](N)C(=O)O)C(=O)NCC(=O)O)[C@@H](O)CCCC(=O)O` [LEUKOTRIEN C4], in data set [1], the Activity result was “substrate [+]”.

As for `O=C1OC(c2ccc(O)c(S(=O)(=O)O)c2)(c2ccc(O)c(S(=O)(=O)O)c2)c2c(Br)c(Br)c(Br)c(Br)c21` [SULFOBROMOPHTHALEIN SODIUM], the Michaelis-Menten constant (Km) on OATP8 (OATP1B3, SLCO1B3) amounted to 3.3 µM; in data set [1], 3.3 µM.
